In the supplement of paper PMC10784567:
± gives the standard deviation of the averaged measurements.

compound: C=C1C[C@H]2C=Nc3cc(OCCCCCOc4cc5c(cc4OC)C(=O)N4CC(=C)C[C@H]4C=N5)c(OC)cc3C(=O)N2C1 [SG2057]; experiment: absolute IC50 (cell viability, CellTiter-Glo); higher = less potent; conditions: treatment time: 3 days
Method: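 Large cancer cell line panel screens in 384-well plates. Cells were treated for 3 days with a 9-point dose titration of the free PBD dimer SG2057; viability was read with CellTiter-Glo. Absolute IC50 came from a four-parameter Hill fit normalised to the median of vehicle (DMSO) wells. Several independent screens (projects) per cell line are averaged; values in µM, lowest-dose floor about 1.524e-5 µM.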

Test System | absolute IC50 [nM]
KATO III | 5.09
KCI-MOH1 | 3.23 ± 2
KE-97 | 0.193 ± 0.11
KELLY | 0.12
KG-1 | 1.22 ± 0.91
KHM-1B | 0.335 ± 0.24
KHM-5M | 0.561
KINGS-1 | 2.75
KLE | 12.1 ± 8.9
KLM-1 | 1 ± 0.96
KLN 205 | 2.12
KM-12 | 3.65
KMM-1 | 0.515 ± 0.079
KMRC-1 | 1.26
KMRC-20 | 3.45
KMS-11 | 0.761 ± 0.19
KMS-12-PE | 0.433
KMS-21BM | 0.26 ± 0.051
KMS-26 | 0.0823 ± 0.024
KMS-27 | 0.164 ± 0.0027
KMS-28PE | 0.0647 ± 0.036
KMS-34 | 0.272 ± 0.27
KNS-62 | 1.4 ± 2.5

Test System | absolute IC50 [nM]
KNS-81 | 0.189
KP4 | 0.251 ± 0.14
KP-2 | 4.15
KP-3 | 2.41 ± 1.7
KP-3L | 2.69 ± 0.26
KP-N-SI9s | 0.0551
KP-N-YN | 0.0159
KPL-1 | 2.48 ± 1.5
KPP14388 | 0.96
KPP14388 LN | 0.49
KPP14449 | 1.53
KPP-1 (KPP-PDAC) XENOGRAFT | 0.168
KPR3070 | 1.35
KPR3351 | 0.931
KR7110 | 1.36
KR7251 | 0.557
KR7414 | 1.45
KURAMOCHI | 4.22
KYSE-30 | 0.368
KYSE-140 | 0.496
KYSE-150 | 0.194
KYSE-180 | 0.667
KYSE-270 | 0.409

Test System | absolute IC50 [nM]
KYSE-410 | 0.579
KYSE-450 | 0.564
KYSE-510 | 0.0686
KYSE-520 | 1.01
Kasumi-1 | 4.11
L-363 | 0.384 ± 0.54
LA-4 | 1.59
LCLC-97TM1 | 1.4
LCLC-103H | 1.11 ± 1.2
LL/2 | 0.449
LN-18 | 2.2 ± 1.4
LN-229 | 2.6 ± 1.4
LNCAP clone FGC | 0.365 ± 0.13
LNCaP/Ner | 0.0717
LS1034 | 5.72
LTPA | 1.46
LUDLU-1 | 9.43
LXFL529 | 2.72
Li-7 | 4.51
LoVo | 1.52 ± 0.43
MAVER-1 | 0.0955 ± 0.065
MC-38 | 0.186
MC-38 Ovalbumin | 0.208

Test System | absolute IC50 [nM]
MC-IXC | 0.0163
MCAS | 0.42 ± 0.58
MCF 10A | 3.78 ± 2.7
MCF 10A AKT2 -/- (Sigma) | 2.14
MCF 10A CDH1 -/- (Sigma) | 2.53
MCF 10A PTEN -/- (Sigma) | 2.54
MCF-7 | 2.5 ± 1.7
MDA-MB-157 | 1.86 ± 1.7
MDA-MB-361 | 1.96 ± 2.5
MDA-MB-435 | 1.76 ± 2.4
MDA-MB-436 | 0.327 ± 0.2
MDA-MB-453 | 3.21 ± 2.3
MDA-MB-468 | 0.353 ± 0.36
ME-180 | 0.155
MEL-JUSO | 0.875 ± 1
MES-SA | 0.135 ± 0.14
MFM-223 | 0.743 ± 0.14
MG-63 | 0.284
MHH-ES-1 | 0.159
MKN-1 | 0.867 ± 1.1
MKN-7 | 1.67
MKN-45 | 1.08 ± 0.44
MKN-74 | 2.17

Test System | absolute IC50 [nM]
ML-2 | 0.0572 ± 0.013
MM.1S | 0.474 ± 0.49
MMAc | 0.868
MOLM-16 | 0.27 ± 0.29
MOLP-8 | 0.212 ± 0.014
MOR | 8.9
MPC-11 | 0.229
MR1-3 | 0.256
MS751 | 0.683
MT-3 | 0.947 ± 0.64
MX-1 | 2.51 ± 2
MeWo | 1.08 ± 0.37
NAMALWA | 0.0643 ± 0.031
NB69 | 0.612
NB(TU)1-10 | 0.604
NB-1 | < 0.0152
NB-4 | 0.29
NCI-H28 | 0.89
NCI-H146 | 0.508
NCI-H187 | 0.1
NCI-H196 | 2.69
NCI-H226 | 1.27 ± 2.5
NCI-H322T | 0.912

Test System | absolute IC50 [nM]
NCI-H358 | 0.959 ± 0.56
NCI-H441 | 0.535
NCI-H446 | 0.244
NCI-H460 | 0.242 ± 0.2
NCI-H520 | 4.03 ± 2.5
NCI-H522 | 0.544
NCI-H650 | 2.97 ± 3.3
NCI-H661 | 1.78 ± 3.4
NCI-H716 | 6.9 ± 3.7
NCI-H727 | 6.75
NCI-H810 | 1.42
NCI-H820 | 1.48
NCI-H838 | 1.34
NCI-H889 | 1.32
NCI-H920 | 9.13
NCI-H1155 | 0.221 ± 0.2
NCI-H1339 | 0.155
NCI-H1355 | 2.88 ± 3
NCI-H1395 | 1.66
NCI-H1437 | 2.05 ± 2
NCI-H1563 | 3.61
NCI-H1581 | 0.852 ± 0.72
NCI-H1648 | 8.58

Test System | absolute IC50 [nM]
NCI-H1650 | 2.52
NCI-H1651 | 0.443
NCI-H1666 | 0.888 ± 0.43
NCI-H1703 | 0.36 ± 0.39
NCI-H1734 | 0.237
NCI-H1770 | 7.47
NCI-H1792 | 2.24
NCI-H1838 | 2.32 ± 2.8
NCI-H1869 | 2.35
NCI-H1915 | 2.4
NCI-H1930 | 0.0346
NCI-H1944 | 1.06 ± 0.29
NCI-H1975 | 2
NCI-H1975 (MB) | 0.206
NCI-H1993 | 0.564
NCI-H2009 | 1.1 ± 0.98
NCI-H2023 | 0.142 ± 0.27
NCI-H2052 | 0.717
NCI-H2073 | 28.9
NCI-H2106 | 1.36 ± 0.71
NCI-H2110 | 0.296 ± 0.18
NCI-H2122 | 2.98 ± 1.3
NCI-H2126 | 3.94

Test System | absolute IC50 [nM]
NCI-H2135 | 5.6
NCI-H2170 | 0.646 ± 0.011
NCI-H2171 | 0.742 ± 1.3
NCI-H2228 | 0.279
NCI-H2347 | 1.14 ± 2.7
NCI-H2373 | 0.217 ± 0.18
NCI-H2405 | 0.552 ± 0.38
NCI-H2444 | 5.49
NCI-H2452 | 2.95 ± 3
NCI-H2461 | 0.545 ± 0.89
NCI-H2595 | 2.2 ± 1.9
NCI-H2722 | 0.343
NCI-H2731 | 1.29 ± 1.9
NCI-H2803 | 3.86
NCI-H2804 | 0.718 ± 0.98
NCI-N87 | 0.403 ± 0.11
NCI-N417 | 0.737
NJG | 0.151
NTERA-2 | < 0.0152
NUGC-4 | 0.443
